From US6472386B1, “Cyclic diamine compound with 5-membered ring groups” (Kowa Co., Ltd., priority 2001, dated 2002)
Where two headings read alike, the source gives them in different places.

System: adhesion of U937 cells to HUVEC stimulated by IL-1β or TNFα
Assay: Inhibitory effect on cell adhesion (U937 cells adhering to stimulated HUVEC)
Type: cell-based
Conditions: Homo sapiens, compound at 1 μM
Protocol: This test was conducted by reference to the method of Ross et al. (J. Biol. Chem., 267, 8537-8543 (1992)). More specifically, after human umbilical venous endothelial cells (HUVEC) were cultured on a 48-well plate to confluent growth, IL-1β or TNFα was added thereto. Upon elapsed time of 5 hours after the addition, U937, which is a human monocytic/histocytic cell fluorescence-labeled with PKH2 (product of Dainippon Pharmaceutical Co., Ltd.), was added in a proportion of 1×10^6 cells per well. After the plate was left at rest at room temperature for 1 hour, unadhered U937 was washed out and lysed in 1% Triton X-100 to measure a remaining fluorescence intensity (excitation wavelength: 480 nm; measuring wavelength: 530 nm). HUVEC and U937 were cultured in EGM-2 (product of Sanko Junyaku K.K.) and 10% FCS-containing RPMI1640, respectively. Each test agent was added to HUVEC upon the addition of IL-1β or TNFα and to U937 24 hours prior to the cell adhesion test. The inhibitory activity was calculated out according to the equation [100-(C−B)/(A−B)×100 (%)], wherein A is the number of U937 cells adhered to HUVEC stimulated by IL-1β or TNFα when no test agent was added, B is the number of U937 cells adhered to HUVEC not stimulated by IL-1β or TNFα when no test agent was added, and C is the number of U937 cells adhered to HUVEC stimulated by IL-1β or TNFα when the test agent was added. As control compounds, Test Compound 1 described in Japanese Patent Application Laid-Open No. 9-143075 and dilazep described in Japanese Patent Application Laid-Open No. 11-92382 were simultaneously evaluated.

[1] = HUVEC stimulated by IL-1β, read-out: Percent inhibition (%) Stimulation by IL-1β
[2] = HUVEC stimulated by TNFα, read-out: Percent inhibition (%) Stimulation by TNFα

Structure (SMILES)	inhibition at 1 µM [1] [%]	inhibition at 1 µM [2] [%]
COc1cc(-c2nc(C)c(CN3CCCN(Cc4sc(-c5cc(OC)c(OC)c(OC)c5)nc4C)CC3)s2)cc(OC)c1OC [Example 11, N,N′-bis[[4-Methyl-2-(3,4,5-trimethoxy-phenyl)thiazol-5-yl]methyl]homopiperazine Dimaleate]	33	53
COc1cc(C#Cc2nc(CN3CCCN(Cc4csc(C#Cc5cc(OC)c(OC)c(OC)c5)n4)CC3)cs2)cc(OC)c1OC [Example 7, N,N′-bis[[2-(3,4,5-Trimethoxyphenylethynyl)-thiazol-4-yl]methyl]homopiperazine]	46	60
COc1cc(-c2nc(CCCN3CCCN(CCCc4csc(-c5cc(OC)c(OC)c(OC)c5)n4)CC3)cs2)cc(OC)c1OC [Example 6, N,N′-bis[3-(2-(3,4,5-Trimethoxyphenyl)-thiazol-4-yl)propyl]homopiperazine]	54	45
COc1cc(C(=O)Nc2nc(CN3CCN(Cc4csc(NC(=O)c5cc(OC)c(OC)c(OC)c5)n4)CC3)cs2)cc(OC)c1OC [Example 8, N,N′-bis[[2-(3,4,5-Trimethoxybenzamido)-thiazol-4-yl]methyl]piperazine]	64	58
COc1cc(C(=O)OCCCN2CCCN(CCCOC(=O)c3cc(OC)c(OC)c(OC)c3)CC2)cc(OC)c1OC [Dilazep, dilazep, reference compound]	0	12
COc1cc(C(=O)Nc2nc(CN3CCCN(Cc4csc(NC(=O)c5cc(OC)c(OC)c(OC)c5)n4)CC3)cs2)cc(OC)c1OC [Example 9, N,N′-bis[[2-(3,4,5-Trimethoxybenzamido)-thiazol-4-yl]methyl]homopiperazine]	40	50
COc1cc(-c2cc(CN3CCN(Cc4cc(-c5cc(OC)c(OC)c(OC)c5)n(Cc5ccccc5)n4)CC3)nn2Cc2ccccc2)cc(OC)c1OC [Example 16, N,N′-bis[[1-Benzyl-5-(3,4,5-trimethoxy-phenyl)pyrazol-3-yl]methyl]piperazine]	30	51
